Reference: PubChem BioAssay (NCI)
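Where inhibition never reached the appropriate level, the endpoint shown equals the highest concentration tested. Otherwise, values were interpolated linearly from a five-concentration, 48-hour dose response in 96-well plates. GI50 is the concentration that inhibits growth by half. The concentration for full growth arrest is given as TGI.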

Experiments:
Assay in all cases: DTP human tumour cell line panel, 48 h
ACHN renal = test system: ACHN renal
EKVX NSCLC = test system: EKVX NSCLC
HCT-15 colon = test system: HCT-15 colon
NCI-H226 lung = test system: NCI-H226 lung
OVCAR-5 ovarian = test system: OVCAR-5 ovarian
OVCAR-8 ovarian = test system: OVCAR-8 ovarian
RXF 393 renal = test system: RXF 393 renal
SN12C renal = test system: SN12C renal
SNB-19 CNS = test system: SNB-19 CNS
T-47D breast = test system: T-47D breast

SMILES	TGI (ACHN renal)	TGI (EKVX NSCLC)	TGI (HCT-15 colon)	TGI (NCI-H226 lung)	TGI (OVCAR-5 ovarian)	TGI (OVCAR-8 ovarian)	TGI (RXF 393 renal)	TGI (SN12C renal)	TGI (SNB-19 CNS)	TGI (T-47D breast)	GI50 (ACHN renal)	GI50 (EKVX NSCLC)	GI50 (HCT-15 colon)	GI50 (NCI-H226 lung)	GI50 (OVCAR-5 ovarian)	GI50 (OVCAR-8 ovarian)	GI50 (RXF 393 renal)	GI50 (SN12C renal)	GI50 (SNB-19 CNS)	GI50 (T-47D breast)
Cc1c2ccn(O)cc2c(C)c2c1nc1ccccc12	> 85.7 µM	> 71.3 µM	> 100 µM	29 µM	53.5 µM	64.4 µM	22.6 µM	> 100 µM	30.8 µM	8.93 µM	–	–	–	–	–	–	–	–	–	–
CCCCCCCCCCCCCCCCCc1nccn1CCOCCO	11.1 µg/mL	10.3 µg/mL	12.2 µg/mL	10 µg/mL	11.2 µg/mL	11.6 µg/mL	10.1 µg/mL	10.1 µg/mL	10.3 µg/mL	8.99 µg/mL	5.95 µg/mL	4.83 µg/mL	6.36 µg/mL	4.36 µg/mL	5.86 µg/mL	5.64 µg/mL	5.04 µg/mL	5.11 µg/mL	5.03 µg/mL	2.99 µg/mL
O=C(O)[C@H](Cc1c[nH]c2ccccc12)N1C(=O)c2ccccc2C1=O	> 100 µM	> 100 µM	> 100 µM	> 100 µM	> 100 µM	> 100 µM	> 100 µM	> 100 µM	> 100 µM	> 100 µM	–	–	–	–	–	> 100 µM	–	–	–	–
CCCCOC(=O)c1ccc(N)cc1	> 100 µM	> 100 µM	> 100 µM	> 100 µM	> 100 µM	> 100 µM	> 100 µM	> 100 µM	> 100 µM	> 100 µM	8.46 µM	39.7 µM	8 µM	63.6 µM	34.8 µM	> 100 µM	> 100 µM	> 100 µM	75.2 µM	47.6 µM
CCCCCCCCCCCCCCCC1=NCCN1	3.7 µM	4.39 µM	3.24 µM	4.7 µM	5.53 µM	6.92 µM	3.38 µM	4.29 µM	–	5.65 µM	1.85 µM	1.86 µM	1.61 µM	2.12 µM	2.26 µM	2.67 µM	1.75 µM	2.07 µM	–	2.14 µM
O=C1C(Cl)=C(Nc2ccc(Nc3ccccc3)c(NC3=C(Cl)C(=O)c4ccccc4C3=O)c2)C(=O)c2ccccc21	–	96.4 µM	> 100 µM	35.6 µM	66.8 µM	> 100 µM	14.2 µM	13.7 µM	59.4 µM	4.75 µM	–	11.4 µM	3.46 µM	16.7 µM	24 µM	4.08 µM	3.09 µM	2.97 µM	4.34 µM	1.95 µM
Cc1ccc2oc(=O)cc(/C(=C3/C=CC=N3)c3ccc[nH]3)c2c1	8.56 µM	4.51 µM	10.1 µM	4.58 µM	12.7 µM	1.07 µM	0.748 µM	3.36 µM	4.94 µM	7.66 µM	0.694 µM	0.435 µM	0.298 µM	0.753 µM	0.901 µM	0.304 µM	0.256 µM	0.672 µM	0.355 µM	0.445 µM
CCCCC(CCCCCC(CCCC)NCc1ccc2c(c1)OCO2)NCc1ccc2c(c1)OCO2 (stereo not given)	2.4 µM	2.87 µM	1.09 µM	4.02 µM	3.08 µM	0.967 µM	0.413 µM	2.96 µM	2.59 µM	0.933 µM	1.17 µM	1.37 µM	0.326 µM	1.91 µM	1.66 µM	0.393 µM	0.213 µM	1.42 µM	1.3 µM	0.315 µM
O=C(CC1(O)C(=O)N(Cc2ccccc2)c2ccc(Cl)cc21)c1ccc(C(=O)NCC2CCC3(CC2)OOC2(CCCCC2)OO3)cc1 (stereo not given)	0.357 µM	1.08 µM	2.43 µM	9.06 µM	6.28 µM	0.758 µM	0.608 µM	2.38 µM	> 100 µM	3.38 µM	0.18 µM	0.306 µM	0.573 µM	1.72 µM	0.644 µM	0.295 µM	0.247 µM	0.797 µM	5.34 µM	0.653 µM
CCN1CCC(Nc2ccnc3cc(Cl)ccc23)CC1	> 100 µM	> 100 µM	> 100 µM	> 100 µM	> 100 µM	> 100 µM	> 100 µM	> 100 µM	> 100 µM	> 100 µM	33.9 µM	35.2 µM	30.1 µM	39.1 µM	34.2 µM	34.8 µM	32.9 µM	91.9 µM	79.1 µM	31.3 µM
COc1cc2c3cc1Oc1c(OC)c(OC)cc4c1C(=NCC4)Cc1ccc(cc1)Oc1cc(ccc1O)C[C@H]3N(C)CC2	83.5 µM	> 100 µM	25.9 µM	61.2 µM	> 100 µM	32 µM	24.9 µM	75.2 µM	61.6 µM	40.4 µM	–	–	–	–	–	–	–	–	–	–
NC(N)=NCC1CCCCCCN1 (stereo not given)	> 100 µM	> 100 µM	> 100 µM	> 100 µM	> 100 µM	> 100 µM	> 100 µM	> 100 µM	> 100 µM	> 100 µM	–	–	–	–	–	–	–	–	–	–
CC1=C2CC(C)(C)/C=C\C(=O)/C(C)=C\C3=C[C@H](C)C[C@]3(O2)C1=O	2.9 µM	6.15 µM	2.53 µM	8.49 µM	3.37 µM	6.82 µM	2.13 µM	10.2 µM	37.2 µM	1.65 µM	–	–	–	–	–	–	–	–	–	–
CC(C)N1CCN(c2ccncc2S(=O)(=O)N2CCCCC2)CC1	> 100 µM	> 100 µM	> 100 µM	> 100 µM	> 100 µM	> 100 µM	> 100 µM	> 100 µM	> 100 µM	> 100 µM	–	–	–	–	–	–	–	–	–	–
C[C@@]1(C(=O)O)CCC[C@]2(C)C1CC[C@@]13C[C@@](O)(CC[C@]12O)[C@@]1(CO1)C3 (stereo not given in full)	> 100 µM	> 100 µM	> 100 µM	> 100 µM	> 100 µM	> 100 µM	> 100 µM	> 100 µM	> 100 µM	> 100 µM	> 100 µM	> 100 µM	> 100 µM	> 100 µM	> 100 µM	> 100 µM	> 100 µM	> 100 µM	> 100 µM	> 100 µM
O=C(CCl)NCCNc1nccc(Nc2ccc(S(=O)(=O)Nc3ccccn3)cc2)n1	10.8 µM	12.8 µM	4.38 µM	28.3 µM	5.1 µM	> 100 µM	7.83 µM	11.1 µM	7.56 µM	8.33 µM	2.6 µM	3.15 µM	1.62 µM	3.34 µM	2.28 µM	3.84 µM	2.61 µM	2.85 µM	2.42 µM	1.9 µM
N#Cc1c(NCc2ccccc2)nc(NCc2ccccc2)c(C#N)c1-c1ccc(O)cc1	57.1 µM	> 100 µM	> 100 µM	67.1 µM	> 100 µM	> 100 µM	> 100 µM	53.2 µM	> 100 µM	> 100 µM	16.9 µM	48.5 µM	29.6 µM	14.3 µM	60.3 µM	58.1 µM	39.1 µM	5.99 µM	50.5 µM	23.8 µM
C=C1C(=O)O[C@H]2[C@H]1CC/C(COC(=O)NCc1c[nH]c3ccccc13)=C\CC[C@@]1(C)O[C@@H]21	7.86 µM	8.84 µM	4.19 µM	5.55 µM	14.4 µM	6.99 µM	2.72 µM	5.47 µM	22.8 µM	4.11 µM	1.97 µM	2.23 µM	1.67 µM	2 µM	3.63 µM	2.2 µM	1.24 µM	1.77 µM	10.6 µM	1.57 µM
O=C(Nc1ccc(Cc2ccccc2)cc1)Nc1nn(C(=O)Nc2ccc(Cc3ccccc3)cc2)c2ccccc12	> 100 µM	> 100 µM	> 100 µM	> 100 µM	> 100 µM	> 100 µM	> 100 µM	> 100 µM	> 100 µM	> 100 µM	> 100 µM	> 100 µM	> 100 µM	> 100 µM	> 100 µM	> 100 µM	30.4 µM	> 100 µM	> 100 µM	> 100 µM
Oc1ccc(Nc2ccc3ccccc3c2)cc1	15.6 µM	20.5 µM	23.5 µM	49.5 µM	78.3 µM	56.7 µM	> 100 µM	> 100 µM	> 100 µM	25.7 µM	2.46 µM	3.66 µM	3.96 µM	19 µM	22.7 µM	6.49 µM	24.1 µM	10 µM	20.4 µM	7.1 µM
CCCc1n(Cc2ccc3ccccc3c2)cc[n+]1Cc1ccc2ccccc2c1	14.2 µM	11.4 µM	16.1 µM	3.92 µM	3.32 µM	–	2.49 µM	2.53 µM	2.26 µM	3.17 µM	3.87 µM	1.71 µM	3.69 µM	1.31 µM	1.43 µM	–	1.13 µM	1.07 µM	0.869 µM	0.377 µM
